Patent publication US20240299486A1, “ADDRESSING INJECTION SITE REACTIONS ASSOCIATED WITH THE ADMINISTRATION OF ELAMIPRETIDE” (STEALTH BIOTHERAPEUTICS INC., priority 2022, published 2024)

Tests used:
[1] = tested on: rats; details: subcutaneous administration, long term toxicology studies
[2] = biological target: human MRGPRX2 (Homo sapiens, UniProt Q96LB1); assay: cell-based
Method: A clonal HEK293 cell line stably expressing human MRGPRX2 and Galpha15 was used for the assay, which was performed using a fluorescent plate reader. Cells were plated at 40,000 cells per well in a glass-bottom 96 well plate 20 hours before the assay. Cells were loaded with N-[4-[6-[(Acetyloxy)methoxy]-2,7-difluoro-3-oxo-3H-xanthen-9-yl]-2-[2-[2-[bis[2-[(acetyloxy)methoxy]-2-oxoethyl]amino]-5-methylphenoxy]ethoxy]phenyl]-N-[2-[(acetyloxy)methoxy]-2-oxoethyl]glycine (acetyloxy)methyl ester (Fluo-4 AM) for 45 minutes at 37° C. and allowed to rest for 30 minutes before use. Baseline fluorescence was calculated as the average of a 30 second read, with data points taken at 5 second intervals. Response was defined as the maximum signal within 90 seconds after addition of elamipretide, subtracted by the baseline fluorescence signal. Concentrations were tested in duplicate and the assay was run 6 times. The curve was calculated as a four-parameter non-linear fit with variable slope. Traces were obtained using the same cell line and same Fluo-4 AM loading protocol but were imaged using a fluorescence microscope using a standard fluorescein isothiocyanate (FITC) filter. Fluorescence for different cells was calculated using region of interest selections.
A calcium-based readout of receptor activity was used to determine whether elamipretide activates human MRGPRX2 and its mouse ortholog Mrgprb2. This assay is known to be widely used in drug screening and utilized a cell line stably transfected with the receptor along with Galpha15, a promiscuous G protein that couples to the receptor and induced an increase in intracellular calcium when the receptor was activated. Thus, an increase in calcium levels reflected receptor activation. Calcium levels were detected by imaging Fluo-4 (from Fluo-4 AM), a dye that increases in fluorescence when bound to calcium.

[3] = tested on: Mouse primary peritoneal mast cells; assay: Mast cell activation (Fluo-4 calcium imaging); format: cell-based; details: 500 micrograms/mL elamipretide
Method: Mouse primary peritoneal mast cells were isolated from wild type and Mrgprb2 knockout mice. Mast cells were incubated in Dulbecco's Modified Eagle Medium, supplemented with 10% fetal bovine serum and 100 ng/mL human stem cell factor for 2 hours in wells of a glass-bottom 96 well plate that had been previously coated with fibronectin. […] A confocal fluorescence microscope was used to assess changes in free intracellular calcium levels in each mast cell in a visual field, as measured by changes in Fluo-4 fluorescence using a standard FITC filter, reflecting responsiveness to elamipretide. Cells were identified as responding if the Fluo-4 signal rose by at least 50% for at least 10 seconds, which clearly distinguishes a ligand-induced response from random flickering events.
Injection site reactions induced by several classes of drugs were mediated in mice by Mrgprb2-dependent activation of mast cells. Whether elamipretide activated primary mouse connective tissue mast cells was evaluated, and if so, it was evaluated whether this was Mrgprb2-dependent. […] Briefly, primary connective tissue mast cells were purified from mice, loaded with Fluo-4, and changes in fluorescence after elamipretide exposure were imaged. T fluorescence of over 200 individual mast cells, each from wild type and Mrgprb2 knockout mice, were monitored and the percentage of total cells that responded was determined.

[4] = tested on: non-human primates; details: long term toxicology studies

Sequence of human MRGPRX2 (Q96LB1 whole entry): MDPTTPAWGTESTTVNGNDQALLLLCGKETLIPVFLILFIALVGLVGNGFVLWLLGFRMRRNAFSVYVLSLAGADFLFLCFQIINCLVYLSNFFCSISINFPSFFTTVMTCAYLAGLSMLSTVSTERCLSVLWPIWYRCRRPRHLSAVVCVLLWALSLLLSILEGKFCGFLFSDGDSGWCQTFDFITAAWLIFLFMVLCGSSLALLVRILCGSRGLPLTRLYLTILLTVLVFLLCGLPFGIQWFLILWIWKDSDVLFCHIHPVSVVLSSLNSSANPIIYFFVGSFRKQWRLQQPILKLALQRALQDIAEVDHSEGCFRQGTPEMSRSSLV

Cc1cc(O)cc(C)c1C[C@H](NC(=O)[C@H](N)CCCNC(=N)N)C(=O)N[C@@H](CCCCN)C(=O)N[C@@H](Cc1ccccc1)C(N)=O (stereo in doubt) [Elamipretide, H-D-Arg-2′,6′Dmt-Lys-Phe-NH2]
injection site reactions [1]: some being severe at the higher dose levels | EC50 [2]: 98.5 µM | EC50 relative to the typical elamipretide injection concentration of 40 mg/mL (times lower) [2]: ~600 times | Fluo-4 fluorescence after elamipretide exposure ([2]; HEK293 cells transfected with MRGPRX2): increased | intracellular calcium response of mast cells ([3]; mast cells from Mrgprb2 knockout mice): almost no responses | intracellular calcium response of mast cells ([3]; wild-type mast cells): Robust increases in intracellular calcium | injection site reactions [4]: generally not severe
